This passage reports Tolerance factor results from patent US10508285B2, “Method for screening of genes conferring increased tolerance to herbicides” (priority 2014, dated 2019).

Data set [1] deals with Cytochrome P450 wildtype (Zea mays). In words: Herbicide tolerance of transiently transformed tobacco leaf discs, PSII yield (PAM imaging). The note with it: IC50 of PSII yield inhibition, Nicotiana benthamiana leaf discs expressing Zea mays Cytochrome P450 wildtype versus empty vector-transformed leaf discs.
Data set [2] addresses T1, Transketolase wildtype (Spinacia oleracea) (Spinacia oleracea, UniProt O20250).
T1 construct: expressed in transfected cells; host or cells: Nicotiana benthamiana leaves, Agrobacterium tumefaciens GV2260 infiltration
T1 sequence (O20250 67-741): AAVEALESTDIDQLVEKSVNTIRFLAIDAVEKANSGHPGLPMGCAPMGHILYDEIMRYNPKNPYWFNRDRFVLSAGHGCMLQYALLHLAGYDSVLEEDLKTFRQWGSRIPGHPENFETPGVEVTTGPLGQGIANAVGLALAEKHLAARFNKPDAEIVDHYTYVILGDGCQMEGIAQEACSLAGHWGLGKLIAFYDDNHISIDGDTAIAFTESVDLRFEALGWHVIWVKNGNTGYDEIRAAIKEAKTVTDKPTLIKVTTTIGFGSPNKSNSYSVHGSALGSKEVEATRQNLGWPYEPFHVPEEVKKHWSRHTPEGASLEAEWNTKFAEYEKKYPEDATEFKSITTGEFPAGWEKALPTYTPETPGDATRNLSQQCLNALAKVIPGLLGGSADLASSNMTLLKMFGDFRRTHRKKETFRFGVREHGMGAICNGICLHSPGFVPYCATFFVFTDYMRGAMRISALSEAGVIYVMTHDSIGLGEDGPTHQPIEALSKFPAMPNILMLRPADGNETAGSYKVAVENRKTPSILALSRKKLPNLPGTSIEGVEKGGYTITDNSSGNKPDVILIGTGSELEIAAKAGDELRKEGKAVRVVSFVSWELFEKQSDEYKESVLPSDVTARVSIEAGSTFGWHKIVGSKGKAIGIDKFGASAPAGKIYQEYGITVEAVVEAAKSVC
The description is as above. In kind it is cell-based. As to conditions: IC50 of PSII yield inhibition, Nicotiana benthamiana leaf discs expressing Spinacia oleracea Transketolase wildtype versus empty vector-transformed leaf discs.

In data set [3] the test system is Protoporphyrinogen IX Oxidase (PPO) L397Q_F420M. It is filed as cell-based, Amaranthus tuberculatus.
Data set [4] relates to Protoporphyrinogen IX Oxidase (PPO) wildtype. The data set is described as follows: Herbicide tolerance of transiently transformed tobacco leaf discs, PSII yield (PAM imaging). It is filed as cell-based. As to conditions: IC50 of PSII yield inhibition, Nicotiana benthamiana leaf discs expressing Alopecurus myosuroides PPO wildtype versus empty vector-transformed leaf discs.

In turn, `CC(C)N1C(=O)c2ccccc2NS1(=O)=O` [Bentazon] registered a Tolerance factor in data set [1] of 13.4.
Take `C/C=C1/CC2=C(C(=O)OC2=O)[C@H](CCC)[C@H](O)C(=O)C[C@@H]1O` [Cornexistin]: in data set [2], the Tolerance factor worked out at 3.6.
As for `CC(C)N(C)S(=O)(=O)NC(=O)c1cc(-n2c(=O)cc(C(F)(F)F)n(C)c2=O)c(F)cc1Cl` [Saflufenacil], the results for the Tolerance factor in data set [3] and in data set [4] were 150 and 177, respectively.
